In patent publication US9242996B2 (Novartis AG, priority 2013, dated 2016):
pIC50: −log10 of the molar value.

biological target: activated ERK2 (Homo sapiens (Human), UniProt P28482); experiment: Activated ERK2 (20 pM) Kinase Assay (AlphaScreen, ERKtide phosphorylation); type: biochemical; conditions: 0.02 nM ERK2, 400 nM ERKtide peptide, 35 μM ATP, 30 min preincubation
Outline: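 Activated human ERK2 (0.02 nM) preincubated 30 min with compounds, then 400 nM ERKtide and 35 μM ATP added for 4 h at ambient temperature in HEPES pH 7.5, MgCl2, DTT, Tween-20, BSA. EDTA stop; phospho-peptide read by AlphaScreen after overnight dark incubation; four-parameter IC50.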

activated ERK2, sequence (P28482 whole entry): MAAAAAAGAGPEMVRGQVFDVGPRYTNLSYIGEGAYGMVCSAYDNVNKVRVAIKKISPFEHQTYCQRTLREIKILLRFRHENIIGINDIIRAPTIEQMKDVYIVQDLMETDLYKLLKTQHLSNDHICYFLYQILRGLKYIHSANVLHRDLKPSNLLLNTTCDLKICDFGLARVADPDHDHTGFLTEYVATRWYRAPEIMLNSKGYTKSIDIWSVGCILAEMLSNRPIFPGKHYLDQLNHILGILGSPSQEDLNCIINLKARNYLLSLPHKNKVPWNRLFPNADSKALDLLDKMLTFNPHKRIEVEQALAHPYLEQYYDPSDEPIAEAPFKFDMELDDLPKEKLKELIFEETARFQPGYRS

SMILES	pIC50
Nc1ncc([C@@H]2CCC(F)(F)[C@@H](O)C2)nc1-c1ccc(C(=O)N[C@H](CO)c2cccc(Cl)c2)c(F)c1 [Example 472, 4-(3-amino-6-((1R,3S)-4,4-difluoro-3-hydroxycyclo-hexyl)pyrazin-2-yl)-N-((S)-1-(3-chlorophenyl)-2-hydroxyethyl)-2-fluorobenzamide]	9.75
Nc1ncc([C@H]2CC[C@H](O)CC2)nc1-c1ccc(C(=O)N[C@H](CO)c2cc(F)cc(I)c2)c(F)c1 [Example 344, 4-(3-amino-6-((1r,4S)-4-hydroxy-cyclohexyl)pyrazin-2-yl)-2-fluoro-N-((S)-1-(3-fluoro-5-iodophenyl)-2-hydroxyethyl) benzamide]	11.01
CNC[C@@H](NC(=O)c1ccc(-c2nc(C3CCOCC3)cnc2N)cc1F)c1cc(F)cc(Br)c1 [Example 365, (S)-4-(3-amino-6-(tetrahydro-2H-pyran-4-yl)pyrazin-2-yl)-N-(1-(3-bromo-5-fluorophenyl)-2-(methylamino)ethyl)-2-fluorobenzamide]	10.68
Nc1ncc([C@H]2CCC[C@@H](O)C2)nc1-c1ccc(C(=O)N[C@H](CO)c2cccc(Cl)c2)c(F)c1 (single isomer, unassigned) [Example 198]	9.65
NC[C@@H](NC(=O)c1ccc(-c2nc(C3CCOCC3)cnc2N)cc1F)c1cccc(Br)c1 [Example 414, (S)-N-(2-amino-1-(3-bromophenyl)ethyl)-4-(3-amino-6-(tetrahydro-2H-pyran-4-yl)pyrazin-2-yl)-2-fluorobenzamide]	10.70
CN1C[C@@H](NC(=O)c2ccc(-c3cc(-c4cnn(C)c4)cnc3N)cc2F)[C@H](c2ccc(Cl)c(F)c2)C1 (stereo in doubt) [Example 209, trans-4-(2-amino-5-(1-methyl-1H-pyrazol-4-yl)pyridin-3-yl)-N-((3S,4R)-4-(4-chloro-3-fluorophenyl)-1-methylpyrrolidin-3-yl)-2-fluorobenzamide]	5.48
Nc1ncc([C@H]2CCC[C@@H](O)C2)nc1-c1ccc(C(=O)N[C@H](CO)c2cccc(Cl)c2)c(F)c1 (single isomer, unassigned) [Example 199]	9.52
NC[C@@H](NC(=O)c1ccc(-c2nc([C@H]3CC[C@H](O)CC3)cnc2N)cc1F)c1cc(F)cc(Br)c1 [Example 342, N-((S)-2-amino-1-(3-bromo-5-fluorophenyl)ethyl)-4-(3-amino-6-((1r,4S)-4-hydroxycyclohexyl)pyrazin-2-yl)-2-fluorobenzamide]	10.76
Nc1ncc([C@H]2CC[C@@H](O)CC2)cc1-c1ccc(C(=O)N[C@H](CO)c2cccc(Cl)c2)c(F)c1 [Example 440, 4-(2-amino-5-((1s,4R)-4-hydroxy-cyclohexyl)pyridin-3-yl)-N-((S)-1-(3-chlorophenyl)-2-hydroxyethyl)-2-fluorobenzamide]	10.15
CCNC[C@@H](NC(=O)c1ccc(-c2nc(C3CCOCC3)cnc2N)cc1F)c1cc(F)cc(Br)c1 [Example 371, (S)-4-(3-amino-6-(tetrahydro-2H-pyran-4-yl)pyrazin-2-yl)-N-(1-(3-bromo-5-fluorophenyl)-2-(ethylamino)ethyl)-2-fluorobenzamide]	10.52
Nc1ncc(C2CCCC(O)C2)nc1-c1ccc(C(=O)N[C@H](CO)c2cccc(Cl)c2)c(F)c1 (single isomer, unassigned) [Example 391]	9.94
CSc1cccc([C@@H](CO)NC(=O)c2ccc(-c3nc(C4CCOCC4)cnc3N)cc2F)c1 [Example 387, (S)-4-(3-amino-6-(tetrahydro-2H-pyran-4-yl)pyrazin-2-yl)-2-fluoro-N-(2-hydroxy-1-(3-(methylthio)phenyl)ethyl)benzamide]	11.00
Cc1nn(C)cc1-c1cnc(N)c(-c2ccc(C(=O)N[C@H](CO)c3cc(F)cc(CF)c3)c(F)c2)c1 [Example 243, (S)-4-(2-amino-5-(1,3-dimethyl-1H-pyrazol-4-yl)pyridin-3-yl)-2-fluoro-N-(1-(3-fluoro-5-(fluoromethyl)phenyl)-2-hydroxyethyl) benzamide]	10.92
Nc1ncc([C@H]2CC[C@H](O)CC2)nc1-c1ccc(C(=O)N[C@@H]2C[C@H]2c2ccccc2)c(F)c1 [Example 203, 4-(3-amino-6-((1r,4R)-4-hydroxycyclohexyl)pyrazin-2-yl)-2-fluoro-N-((1R,2S)-2-phenylcyclopropyl)benzamide]	8.13
Cc1c(-c2cnc(N)c(-c3ccc(C(=O)N[C@H](C)c4cc(F)cc(S(C)(=O)=O)c4)c(F)c3)c2)cnn1C(F)F [Example 278, (R)-4-(2-amino-5-(1-(difluoromethyl)-5-methyl-1H-pyrazol-4-yl)pyridin-3-yl)-2-fluoro-N-(1-(3-fluoro-5-(methylsulfonyl)phenyl)ethyl) benzamide]	9.84
Nc1ncc([C@@H]2CC[C@H](O)[C@H](O)C2)nc1-c1ccc(C(=O)N[C@H](CO)c2cc(F)cc(Br)c2)c(F)c1 [Example 468, 4-(3-amino-6-((1R,3R,4S)-3,4-dihydroxy-cyclohexyl)pyrazin-2-yl)-2-fluoro-N-((S)-1-(3-fluoro-5-bromophenyl)-2-hydroxyethyl) benzamide]	9.60
Cc1c(-c2cnc(N)c(-c3ccc(C(=O)N[C@H](CO)c4cc(F)cc(CF)c4)c(F)c3)c2)cnn1C(F)F [Example 262, (S)-4-(2-amino-5-(1-(difluoromethyl)-5-methyl-1H-pyrazol-4-yl)pyridin-3-yl)-2-fluoro-N-(1-(3-fluoro-5-(fluoromethyl)phenyl)-2-hydroxyethyl) benzamide]	10.85
Nc1ncc([C@H]2CC[C@H](O)CC2)nc1-c1ccc(C(=O)N[C@H](CO)c2cc(F)cc(C(F)F)c2)c(F)c1 [Example 337, 4-(3-amino-6-((1r,4S)-4-hydroxycyclohexy)pyrazin-2-yl)-N-((S)-1-(3-(difluoromethyl)-5-fluorophenyl)-2-hydroxyethyl)-2-fluorobenzamide]	10.36
COC(=O)NC[C@@H](NC(=O)c1ccc(-c2nc(C3CCOCC3)cnc2N)cc1F)c1cc(F)cc(Br)c1 [Example 410, (S)-methyl (2-(4-(3-amino-6-(tetrahydro-2H-pyran-4-yl)pyrazin-2-yl)-2-fluoro-benzamido)-2-(3-bromo-5-fluorophenyl)ethyl) carbamate]	10.03
[N-]=[N+]=NC[C@@H](NC(=O)c1ccc(-c2nc(C3CCOCC3)cnc2N)cc1F)c1cccc(Cl)c1 [Example 404, (S)-4-(3-amino-6-(tetrahydro-2H-pyran-4-yl)pyrazin-2-yl)-N-(2-azido-1-(3-chlorophenyl)ethyl)-2-fluorobenzamide]	9.94
Nc1ncc([C@H]2CCC(F)(F)[C@H](O)C2)nc1-c1ccc(C(=O)N[C@H](CO)c2cccc(Cl)c2)c(F)c1 [Example 470, 4-(3-amino-6-((1S,3R)-4,4-difluoro-3-hydroxycyclo-hexyl)pyrazin-2-yl)-N-((S)-1-(3-chlorophenyl)-2-hydroxyethyl)-2-fluorobenzamide]	9.66
NC[C@@H](NC(=O)c1ccc(-c2nc(C3CCCC(O)C3)cnc2N)cc1F)c1cccc(Cl)c1 (single isomer, unassigned) [Example 372]	10.40
Cn1nncc1-c1cnc(N)c(-c2ccc(C(=O)N[C@H](CO)c3cccc(Br)c3)c(F)c2)c1 [Example 266, (S)-4-(2-amino-5-(1-methyl-1H-1,2,3-triazol-5-yl)pyridin-3-yl)-N-(1-(3-bromophenyl)-2-hydroxyethyl)-2-fluorobenzamide]	10.31
Nc1ncc([C@H]2CC[C@H](O)C(F)(F)C2)nc1-c1ccc(C(=O)N[C@H](CO)c2cc(F)cc(Br)c2)c(F)c1 [Example 460, 4-(3-amino-6-((1S,4S)-3,3-difluoro-4-hydroxy-cyclohexyl)pyrazin-2-yl)-2-fluoro-N-((S)-1-(3-fluoro-5-bromophenyl)-2-hydroxyethyl) benzamide]	10.40
Nc1ncc([C@H]2CC[C@H](O)[C@H](F)C2)nc1-c1ccc(C(=O)N[C@H](CO)c2cc(F)cc(Br)c2)c(F)c1 [Example 188, 4-(3-amino-6-((1S,3R,4S)-3-fluoro-4-hydroxycyclohexyl)pyrazin-2-yl)-N—((S)-1-(3-bromo-5-fluorophenyl)-2-hydroxyethyl)-2-fluorobenzamide]	10.33
Nc1ncc(C2CCOCC2)nc1-c1ccc(C(=O)N[C@H](CO)c2cc(F)cc(Cl)c2)c(F)c1 [Example 330, (S)-4-(3-amino-6-(tetrahydro-2H-pyran-4-yl)pyrazin-2-yl)-N-(1-(3-chloro-5-fluorophenyl)-2-hydroxyethyl)-2-fluorobenzamide]	10.65
Nc1ncc([C@H]2CC[C@@H](F)CC2)nc1-c1ccc(C(=O)N[C@H](CO)c2cccc(Cl)c2)c(F)c1 [Example 448, 4-(3-amino-6-((1s,4R)-4-fluorocyclohexyl)pyrazin-2-yl)-N-((S)-1-(3-chlorophenyl)-2-hydroxyethyl)-2-fluorobenzamide]	9.43
Nc1ncc(C(=O)N2CCC(CO)CC2)nc1-c1ccc(C(=O)N[C@H](CO)c2cc(F)cc(Br)c2)c(F)c1 [Example 475, (S)-4-(3-amino-6-(4-(hydroxymethyl)piperidine-1-carbonyl)pyrazin-2-yl)-N-(1-(3-bromo-5-fluorophenyl)-2-hydroxyethyl)-2-fluorobenzamide]	8.01
NC[C@@H](NC(=O)c1ccc(-c2nc(C3CCCC(O)C3)cnc2N)cc1F)c1cccc(Cl)c1 (single isomer, unassigned) [Example 368]	10.05
